Assay results from patent publication US8735322B2, “Herbicides” (Syngenta Limited, priority 2008, dated 2014).

Legend:
Format in all cases: in vivo
[1] = tested on: Alopecurus myosuroides (ALOMY); assay: Example B pre-emergence herbicidal activity, glasshouse pot test; conditions: 312 h, rate 1000 g/ha, evaluated after 13 days, read-out: herbicidal damage ALOMY (100=total damage to plant; 0=no damage to plant)
Procedure: (§1) Seeds of a variety of test species were sown in standard soil in pots. After cultivation for one day (pre-emergence) or after 8 days cultivation (post-emergence) under controlled conditions in a glasshouse (at 24/16° C., day/night; 14 hours light; 65% humidity), the plants were sprayed with an aqueous spray solution derived from the formulation of the technical active ingredient in acetone/water (50:50) solution containing 0.5% Tween 20 (polyoxyethelyene sorbitan monolaurate, CAS RN 9005-64-5). The test plants were then grown in a glasshouse under controlled conditions in a glasshouse (at 24/16° C., day/night; 14 hours light; 65% humidity) and watered twice daily. After 13 days for pre and post-emergence, the test was evaluated (100=total damage to plant; 0=no damage to plant). Alopecurus myosuroides (ALOMY), Avena fatua (AVEFA), Setaria faberi (SETFA), Echinochloa crus-galli (ECHCG), Solanum nigrum (SOLNI) and Amaranthus retroflexus (AMARE) Pre-Emergence Activity

[2] = tested on: Amaranthus retroflexus (AMARE); assay: as above; conditions: 312 h, rate 1000 g/ha, evaluated after 13 days, read-out: herbicidal damage AMARE (100=total damage to plant; 0=no damage to plant)
Procedure: as §1

Avena fatua (AVEFA) [3] = assay: as above; conditions: 312 h, rate 1000 g/ha, evaluated after 13 days, read-out: herbicidal damage AVEFA (100=total damage to plant; 0=no damage to plant)
Procedure: as §1

[4] = tested on: Echinochloa crus-galli (ECHCG); assay: as above; conditions: 312 h, rate 1000 g/ha, evaluated after 13 days, read-out: herbicidal damage ECHCG (100=total damage to plant; 0=no damage to plant)
Procedure: as §1

Setaria faberi (SETFA) [5] = assay: as above; conditions: 312 h, rate 1000 g/ha, evaluated after 13 days, read-out: herbicidal damage SETFA (100=total damage to plant; 0=no damage to plant)
Procedure: as §1

Solanum nigrum (SOLNI) [6] = assay: as above; conditions: 312 h, rate 1000 g/ha, evaluated after 13 days, read-out: herbicidal damage SOLNI (100=total damage to plant; 0=no damage to plant)
Procedure: as §1

[7] = tested on: Alopecurus myosuroides (ALOMY); assay: Example B post-emergence herbicidal activity, glasshouse pot test; conditions: 312 h, rate 1000 g/ha, evaluated after 13 days, read-out: herbicidal damage ALOMY (100=total damage to plant; 0=no damage to plant)
Procedure: as §1, with “Post-Emergence” for “Pre-Emergence”

[8] = tested on: Amaranthus retroflexus (AMARE); assay: as above; conditions: 312 h, rate 1000 g/ha, evaluated after 13 days, read-out: herbicidal damage AMARE (100=total damage to plant; 0=no damage to plant)
Procedure: as §1, with “Post-Emergence” for “Pre-Emergence”

Avena fatua (AVEFA) [9] = assay: as above; conditions: 312 h, rate 1000 g/ha, evaluated after 13 days, read-out: herbicidal damage AVEFA (100=total damage to plant; 0=no damage to plant)
Procedure: as §1, with “Post-Emergence” for “Pre-Emergence”

[10] = tested on: Echinochloa crus-galli (ECHCG); assay: as above; conditions: 312 h, rate 1000 g/ha, evaluated after 13 days, read-out: herbicidal damage ECHCG (100=total damage to plant; 0=no damage to plant)
Procedure: as §1, with “Post-Emergence” for “Pre-Emergence”

Setaria faberi (SETFA) [11] = assay: as above; conditions: 312 h, rate 1000 g/ha, evaluated after 13 days, read-out: herbicidal damage SETFA (100=total damage to plant; 0=no damage to plant)
Procedure: as §1, with “Post-Emergence” for “Pre-Emergence”

Solanum nigrum (SOLNI) [12] = assay: as above; conditions: 312 h, rate 1000 g/ha, evaluated after 13 days, read-out: herbicidal damage SOLNI (100=total damage to plant; 0=no damage to plant)
Procedure: as §1, with “Post-Emergence” for “Pre-Emergence”

Structure (SMILES) | pest or weed control at 1000 g/ha [1] | pest or weed control at 1000 g/ha [2] | pest or weed control at 1000 g/ha (Avena fatua (AVEFA) [3]) | pest or weed control at 1000 g/ha [4] | pest or weed control at 1000 g/ha (Setaria faberi (SETFA) [5]) | pest or weed control at 1000 g/ha (Solanum nigrum (SOLNI) [6]) | pest or weed control at 1000 g/ha [7] | pest or weed control at 1000 g/ha [8] | pest or weed control at 1000 g/ha (Avena fatua (AVEFA) [9]) | pest or weed control at 1000 g/ha [10] | pest or weed control at 1000 g/ha (Setaria faberi (SETFA) [11]) | pest or weed control at 1000 g/ha (Solanum nigrum (SOLNI) [12])
Cc1cc(-c2ccc(C(F)(F)F)cc2)cc(C)c1C1=C(O)CC(CC2CCOCC2)CC1=O (stereo not drawn) [Compound A-38] | 30% | 0% | 20% | 100% | 100% | 0% | 30% | 0% | 40% | 90% | 100% | 20%
Cc1ccc(-c2ccc(F)c(F)c2)cc1C1=C(O)CC(CC2CCOCC2)CC1=O (stereo not drawn) [Compound A-40] | 0% | 0% | 0% | 30% | 0% | 0% | 70% | 30% | 70% | 100% | 90% | 0%
Cc1ccc(-c2ccc(Cl)cc2)cc1C1=C(O)CC(CC2OCC3(CC3)CO2)CC1=O (stereo not drawn) [Compound A-65] | 20% | 30% | 0% | 70% | 60% | 20% | 40% | 90% | 20% | 70% | 70% | 60%
Cc1ccc(-c2ccc(Cl)cc2)cc1C1=C(O)CC(CC2OCCCCO2)CC1=O (stereo not drawn) [Compound A-62] | 20% | 0% | 0% | 50% | 60% | 0% | 90% | 0% | 80% | 100% | 100% | 0%
Cc1ccc(-c2ccc(Cl)cc2)cc1C1=C(O)CC(CC2OCC(CC3CCOCC3)O2)CC1=O (stereo not drawn) [Compound A-60] | 0% | 0% | 0% | 30% | 30% | 0% | 60% | 0% | 10% | 90% | 90% | 0%
COCC1COC(CC2CC(=O)C(c3cc(-c4ccc(Cl)cc4)ccc3C)=C(O)C2)O1 (stereo not drawn) [Compound A-63] | 0% | 20% | 0% | 20% | 70% | 0% | 90% | 0% | 90% | 100% | 100% | 0%
Cc1cc(-c2ccc(Cl)cc2)cc(C)c1C1=C(O)CC(CC2CCOCC2)CC1=O (stereo not drawn) [Compound A-37] | 80% | 20% | 90% | 100% | 100% | 20% | 90% | 40% | 100% | 100% | 100% | 70%
Cc1ccc(-c2ccc(Cl)cc2)cc1C1=C(O)CC(CC2OCCCO2)CC1=O (stereo not drawn) [Compound A-55, 2-(4′-Chloro-4-methylbiphenyl-3-yl)-5-[1,3]dioxan-2-ylmethylcyclohexane-1,3-dione] | 0% | 0% | 20% | 60% | 60% | 0% | 90% | 0% | 90% | 100% | 100% | 0%
Cc1ccc(-c2ccc(Cl)cc2)cc1C1=C(O)CC(CC2O[C@H]3COC[C@H]3O2)CC1=O (stereo partly drawn) [Compound A-61] | 0% | 0% | 0% | 20% | 30% | 0% | 90% | 0% | 80% | 100% | 100% | 0%
Cc1ccc(-c2ccc(Cl)cc2)cc1C1=C(O)CC(CC2OCC(C)(C)CO2)CC1=O (stereo not drawn) [Compound A-56] | 20% | 0% | 0% | 0% | 70% | 0% | 80% | 0% | 0% | 100% | 90% | 0%
Cc1ccc(-c2ccc(OC(F)(F)F)cc2)cc1C1=C(O)CC(CC2CCOCC2)CC1=O (stereo not drawn) [Compound A-29] | 20% | 50% | 0% | 20% | 0% | 30% | 10% | 70% | 0% | 60% | 60% | 20%
Cc1cc(-c2ccc(C)c(C3=C(O)CC(CC4CCOCC4)CC3=O)c2)ccc1F (stereo not drawn) [Compound A-48] | 0% | 0% | 0% | 20% | 20% | 0% | 60% | 10% | 60% | 80% | 80% | 0%
Cc1ccc(-c2ccc(F)cc2)cc1C1=C(O)CC(CC2CCOCC2)CC1=O (stereo not drawn) [Compound A-39] | 0% | 0% | 0% | 0% | 0% | 0% | 60% | 0% | 80% | 80% | 90% | 0%
